Paper PMC3505271 (Nature chemical biology, 2012)

Tests used:
[1] = target: AnaPS (Aspergillus fischeri, UniProt A1DN09); test: amino acid-dependent ATP-[…]PPi exchange; assay type: biochemical; settings: adenylation domain substrate; ATP co-substrate
[2] = target: TqaA (Penicillium aethiopicum, UniProt F1CWE4); test: amino acid-dependent ATP-[…]PPi exchange; assay type: biochemical; settings: adenylation domain substrate; ATP co-substrate

AnaPS, sequence (A1DN09 whole entry, the tested form may be a part): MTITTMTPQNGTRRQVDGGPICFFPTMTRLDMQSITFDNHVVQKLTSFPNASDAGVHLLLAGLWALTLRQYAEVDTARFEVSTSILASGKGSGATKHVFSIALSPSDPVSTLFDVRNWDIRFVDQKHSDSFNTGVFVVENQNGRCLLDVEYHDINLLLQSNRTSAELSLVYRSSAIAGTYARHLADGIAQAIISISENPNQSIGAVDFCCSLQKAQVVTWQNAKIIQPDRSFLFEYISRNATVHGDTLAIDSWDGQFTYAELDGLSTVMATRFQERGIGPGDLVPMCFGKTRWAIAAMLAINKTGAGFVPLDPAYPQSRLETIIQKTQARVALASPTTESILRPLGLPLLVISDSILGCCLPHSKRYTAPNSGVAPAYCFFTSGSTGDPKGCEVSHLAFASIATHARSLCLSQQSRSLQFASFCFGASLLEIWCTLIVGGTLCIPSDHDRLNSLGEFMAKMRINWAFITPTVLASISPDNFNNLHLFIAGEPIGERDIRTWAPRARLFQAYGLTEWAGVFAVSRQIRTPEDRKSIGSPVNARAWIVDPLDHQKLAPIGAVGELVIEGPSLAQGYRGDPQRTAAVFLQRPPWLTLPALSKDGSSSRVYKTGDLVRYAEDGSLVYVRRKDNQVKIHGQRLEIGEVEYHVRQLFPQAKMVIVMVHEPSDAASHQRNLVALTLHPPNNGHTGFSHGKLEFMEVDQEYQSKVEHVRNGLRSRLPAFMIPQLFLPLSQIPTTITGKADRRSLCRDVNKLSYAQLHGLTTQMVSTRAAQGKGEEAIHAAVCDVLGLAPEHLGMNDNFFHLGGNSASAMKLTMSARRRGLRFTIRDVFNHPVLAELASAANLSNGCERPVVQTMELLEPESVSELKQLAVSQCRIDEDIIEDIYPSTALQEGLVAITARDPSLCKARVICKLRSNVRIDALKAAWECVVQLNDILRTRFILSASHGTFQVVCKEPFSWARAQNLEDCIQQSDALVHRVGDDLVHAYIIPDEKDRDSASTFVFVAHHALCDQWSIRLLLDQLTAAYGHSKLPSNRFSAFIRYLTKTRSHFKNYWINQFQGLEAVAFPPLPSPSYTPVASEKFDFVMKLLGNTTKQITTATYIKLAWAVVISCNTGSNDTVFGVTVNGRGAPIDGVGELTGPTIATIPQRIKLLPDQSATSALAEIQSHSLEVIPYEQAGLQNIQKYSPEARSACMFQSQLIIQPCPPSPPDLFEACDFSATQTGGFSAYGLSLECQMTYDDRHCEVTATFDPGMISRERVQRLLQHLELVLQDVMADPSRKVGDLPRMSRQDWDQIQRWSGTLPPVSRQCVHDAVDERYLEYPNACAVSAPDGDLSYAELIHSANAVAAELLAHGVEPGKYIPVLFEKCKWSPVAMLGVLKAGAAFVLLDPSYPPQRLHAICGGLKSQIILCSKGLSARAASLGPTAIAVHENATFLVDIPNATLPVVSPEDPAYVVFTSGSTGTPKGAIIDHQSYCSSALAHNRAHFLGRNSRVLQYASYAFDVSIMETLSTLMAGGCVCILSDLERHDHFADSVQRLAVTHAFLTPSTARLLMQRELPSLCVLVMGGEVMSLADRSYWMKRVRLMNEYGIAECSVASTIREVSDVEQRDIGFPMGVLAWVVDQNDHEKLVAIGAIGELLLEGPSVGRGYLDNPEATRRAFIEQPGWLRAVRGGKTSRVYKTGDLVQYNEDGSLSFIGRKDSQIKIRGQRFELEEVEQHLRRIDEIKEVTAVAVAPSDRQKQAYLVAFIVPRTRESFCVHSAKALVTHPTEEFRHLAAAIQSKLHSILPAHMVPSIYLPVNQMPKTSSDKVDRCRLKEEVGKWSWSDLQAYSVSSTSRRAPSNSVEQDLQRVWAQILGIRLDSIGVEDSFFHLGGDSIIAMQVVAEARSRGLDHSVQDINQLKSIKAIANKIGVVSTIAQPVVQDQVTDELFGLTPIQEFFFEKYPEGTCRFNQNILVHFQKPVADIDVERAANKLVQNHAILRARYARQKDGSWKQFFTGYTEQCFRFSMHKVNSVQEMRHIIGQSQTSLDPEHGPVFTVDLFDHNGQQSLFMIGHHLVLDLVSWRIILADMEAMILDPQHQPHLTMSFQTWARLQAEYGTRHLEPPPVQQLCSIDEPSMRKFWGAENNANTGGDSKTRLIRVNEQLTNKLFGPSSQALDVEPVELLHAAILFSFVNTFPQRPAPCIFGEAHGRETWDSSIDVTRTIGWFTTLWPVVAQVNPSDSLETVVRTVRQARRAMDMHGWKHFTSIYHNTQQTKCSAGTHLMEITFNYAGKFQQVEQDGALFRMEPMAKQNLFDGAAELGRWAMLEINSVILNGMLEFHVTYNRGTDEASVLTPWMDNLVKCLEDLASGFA

| Structure (SMILES) | amino acid-dependent ATP-[32P]PPi exchange [1] | amino acid-dependent ATP-[32P]PPi exchange [2] |
| --- | --- | --- |
| N[C@@H](Cc1c[nH]c2ccccc12)C(=O)O [L-tryptophan] | Similarly, AnaPS A domains activated Ant and L-Trp | – |
| Nc1ccccc1C(=O)O [anthranilate] | Similarly, AnaPS A domains activated Ant and L-Trp | TqaA specifically activated the three building blocks Ant, L-Trp and L-Ala |
